According to paper PMC7402526, “An in vitro quantitative systems pharmacology approach for deconvolving mechanisms of drug-induced, multilineage cytopenias” (PLoS Computational Biology, 2020):

Experiments:
[1] = test system: granulocytes (Gran-lin); assay: MLTA, Gran: concentration-response and QSP model fit; assay type: cell-based, human; details: Homo sapiens, 144 h
In short: (§1)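 Six-day flow cytometry counts, bead-normalized and expressed relative to the mean of six vehicle wells, underlie each value. Cells were primary human bone marrow CD34+ cells cultured in SFEM II with cytokines promoting multi-lineage differentiation and self-renewal.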

[2] = test system: monocytes (monocyte-lin); assay: MLTA, Mono: concentration-response and QSP model fit; assay type: cell-based, human; details: Homo sapiens, Monocyte, 144 h
In short: as §1

[3] = test system: granulocyte-macrophage progenitor (GMPs); assay: MLTA, GMPs: concentration-response and QSP model fit; assay type: cell-based, human; details: Homo sapiens, 144 h, 6 days, normalized to vehicle control, read-out: GMPs normalized cell count
In short: (§2)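 Freeze-thawed primary human bone marrow CD34+ cells were cultured 6 days in SFEM II with a cytokine cocktail, drug added on day 0. Subsets were counted by 17-parameter flow cytometry with TruCount beads and normalized to vehicle wells. An Emax QSP model (Emax 0–2, L1 regularization) was fitted to these counts.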

[4] = test system: lymphocyte progenitors (LymP); assay: MLTA, LymP: concentration-response and QSP model fit; assay type: cell-based, human; details: Homo sapiens, Lymphocyte, 144 h
In short: as §2

[5] = test system: B cells (B-lin); assay: MLTA, B-lin: concentration-response and QSP model fit; assay type: cell-based, human; details: Homo sapiens, B-cell, 144 h
In short: as §2

[6] = test system: monocyte progenitors (monocyte prog); assay: MLTA, MonoP: concentration-response and QSP model fit; assay type: cell-based, human; details: Homo sapiens, Monocyte, 144 h
In short: as §1

[7] = test system: total dead cells (totalDeadCells); assay: MLTA, total dead cells concentration-response; assay type: cell-based; details: Homo sapiens, 144 h, 6 days, normalized to vehicle control, read-out: total_dead normalized cell count
Procedure: (§3) A custom optimized cytokine cocktail was developed using commercially available cytokines (Peprotech, New Jersey) to facilitate simultaneous multi-lineage differentiation and self-renewal of freeze-thawed primary human bone marrow-derived CD34+ cells in SFEM II media (cells and media from StemCell Technologies, Vancouver). Cultures were carried out in ultra-low attachment 96-well plates (Corning, New York) with test article added on day 0 and cultured at 37°C, 85% relative humidity, and 5% CO2 for six days before interrogating drug impact via 17-parameter flow cytometry.
(§4) The flow cytometry panel used to define hematopoietic subsets was composed of CD34-PECy7, CD90-PECY5, CD38-AF488, CD371-PE, CD45Ra-BV421, CD14-BV605, CD42b-AF647, CD10-PEDazzle594, CD235a-PerCPCy5.5 (BioLegend, California), CD15-BUV395, CD41a-APCH7, CD71-BV786 (BD Biosciences, California), and DAPI for dead cell exclusion (ThermoFisher, California). In short, Day 6 cells were harvested, FcR-blocked (FcR binding inhibitor, ThermoFisher), surface-stained, then analyzed in a buffer containing TruCount Control Beads using a BD LSR Fortessa SORP fitted with a high-throughput sampler (BD Biosciences, California). Data was analyzed in Diva 6.0.2 and exported to CSV where after all cell data was transformed to cell per mL then normalized on a per-donor basis to untreated control wells to determine drug impact.
(§5) Donor material was collected and cultured as described above. The number of replicate donor samples per drug ranged from 2–7 and varied per drug (S1 Table). Drug treatment was added at time 0 and cells were maintained in culture for 6 days. Concentrations tested for each drug compound are contained in S1 Table. Concentrations were selected to span a range that is clinically useful. Following treatment, cell populations were measured using flow cytometry. We extracted cell counts from flow cytometry data, normalized to bead counts, and corrected for well volume.
(§6) Each well was normalized to the average of six vehicle control wells. For drugs that were tested across multiple runs of the assay, vehicle-normalized donor data were pooled, and we used the average of these pooled data for further modeling. Normalized data used as model inputs are included in S1 Table.

[8] = test system: total viable cells (totalViableCells); assay: MLTA, total live cells concentration-response; assay type: cell-based; details: Homo sapiens, 144 h, 6 days, normalized to vehicle control, read-out: total_live normalized cell count
Procedure: as §3, §4, §5, §6

O=C1CCC(N2C(=O)c3ccccc3C2=O)C(=O)N1 (stereo not shown) [thalidomide]
activity at 0.0002 µM ([1]; dose 0.2 nM, 6 days, normalized to vehicle control, read-out: Gran normalized cell count): 85%
activity at 0.001 µM ([1]; dose 1 nM, 6 days, normalized to vehicle control, read-out: Gran normalized cell count): 100%
activity at 0.005 µM ([1]; dose 5 nM, 6 days, normalized to vehicle control, read-out: Gran normalized cell count): 110%
activity at 0.025 µM ([1]; dose 25 nM, 6 days, normalized to vehicle control, read-out: Gran normalized cell count): 126%
activity at 0.1 µM ([1]; dose 100 nM, 6 days, normalized to vehicle control, read-out: Gran normalized cell count): 94.9%
activity at 0.5 µM ([1]; dose 500 nM, 6 days, normalized to vehicle control, read-out: Gran normalized cell count): 92.7%
activity at 2.5 µM ([1]; dose 2500 nM, 6 days, normalized to vehicle control, read-out: Gran normalized cell count): 102%
Emax ([1]; parameter from QSP model fitting, read-out: Emax_drug_Gran): 0.01%
activity at 0.0002 µM ([2]; dose 0.2 nM, 6 days, normalized to vehicle control, read-out: Mon normalized cell count): 83.3%
activity at 0.001 µM ([2]; dose 1 nM, 6 days, normalized to vehicle control, read-out: Mon normalized cell count): 94%
activity at 0.005 µM ([2]; dose 5 nM, 6 days, normalized to vehicle control, read-out: Mon normalized cell count): 89.4%
activity at 0.025 µM ([2]; dose 25 nM, 6 days, normalized to vehicle control, read-out: Mon normalized cell count): 106%
activity at 0.1 µM ([2]; dose 100 nM, 6 days, normalized to vehicle control, read-out: Mon normalized cell count): 94.4%
activity at 0.5 µM ([2]; dose 500 nM, 6 days, normalized to vehicle control, read-out: Mon normalized cell count): 99.9%
activity at 2.5 µM ([2]; dose 2500 nM, 6 days, normalized to vehicle control, read-out: Mon normalized cell count): 97.3%
Emax ([2]; parameter from QSP model fitting, read-out: Emax_drug_Mono): 0.00608%
activity at 0.0002 µM ([3]; dose 0.2 nM): 92.4%
activity at 0.001 µM ([3]; dose 1 nM): 107%
activity at 0.005 µM ([3]; dose 5 nM): 100%
activity at 0.025 µM ([3]; dose 25 nM): 112%
activity at 0.1 µM ([3]; dose 100 nM): 97%
activity at 0.5 µM ([3]; dose 500 nM): 104%
activity at 2.5 µM ([3]; dose 2500 nM): 99%
activity at 0.0002 µM ([4]; dose 0.2 nM, 6 days, normalized to vehicle control, read-out: LymP normalized cell count): 109%
activity at 0.001 µM ([4]; dose 1 nM, 6 days, normalized to vehicle control, read-out: LymP normalized cell count): 105%
activity at 0.005 µM ([4]; dose 5 nM, 6 days, normalized to vehicle control, read-out: LymP normalized cell count): 123%
activity at 0.025 µM ([4]; dose 25 nM, 6 days, normalized to vehicle control, read-out: LymP normalized cell count): 126%
activity at 0.1 µM ([4]; dose 100 nM, 6 days, normalized to vehicle control, read-out: LymP normalized cell count): 94.6%
activity at 0.5 µM ([4]; dose 500 nM, 6 days, normalized to vehicle control, read-out: LymP normalized cell count): 76.6%
activity at 2.5 µM ([4]; dose 2500 nM, 6 days, normalized to vehicle control, read-out: LymP normalized cell count): 139%
Emax ([4]; parameter from QSP model fitting, read-out: Emax_drug_LymP): 0.0064%
activity at 0.0002 µM ([5]; dose 0.2 nM, 6 days, normalized to vehicle control, read-out: B-lin normalized cell count): 90.8%
activity at 0.001 µM ([5]; dose 1 nM, 6 days, normalized to vehicle control, read-out: B-lin normalized cell count): 99.6%
activity at 0.005 µM ([5]; dose 5 nM, 6 days, normalized to vehicle control, read-out: B-lin normalized cell count): 108%
activity at 0.025 µM ([5]; dose 25 nM, 6 days, normalized to vehicle control, read-out: B-lin normalized cell count): 116%
activity at 0.1 µM ([5]; dose 100 nM, 6 days, normalized to vehicle control, read-out: B-lin normalized cell count): 93%
activity at 0.5 µM ([5]; dose 500 nM, 6 days, normalized to vehicle control, read-out: B-lin normalized cell count): 91.5%
activity at 2.5 µM ([5]; dose 2500 nM, 6 days, normalized to vehicle control, read-out: B-lin normalized cell count): 104%
Emax ([5]; parameter from QSP model fitting, read-out: Emax_drug_B): 0.24%
activity at 0.0002 µM ([6]; dose 0.2 nM, 6 days, normalized to vehicle control, read-out: MonoPs normalized cell count): 90.1%
activity at 0.001 µM ([6]; dose 1 nM, 6 days, normalized to vehicle control, read-out: MonoPs normalized cell count): 93.5%
activity at 0.005 µM ([6]; dose 5 nM, 6 days, normalized to vehicle control, read-out: MonoPs normalized cell count): 98.4%
activity at 0.025 µM ([6]; dose 25 nM, 6 days, normalized to vehicle control, read-out: MonoPs normalized cell count): 120%
activity at 0.1 µM ([6]; dose 100 nM, 6 days, normalized to vehicle control, read-out: MonoPs normalized cell count): 92%
activity at 0.5 µM ([6]; dose 500 nM, 6 days, normalized to vehicle control, read-out: MonoPs normalized cell count): 82.7%
activity at 2.5 µM ([6]; dose 2500 nM, 6 days, normalized to vehicle control, read-out: MonoPs normalized cell count): 104%
Emax ([6]; parameter from QSP model fitting, read-out: Emax_drug_MonoP): 0.00494%
activity at 0.0002 µM ([7]; dose 0.2 nM): 91.6%
activity at 0.001 µM ([7]; dose 1 nM): 109%
activity at 0.005 µM ([7]; dose 5 nM): 96.3%
activity at 0.025 µM ([7]; dose 25 nM): 120%
activity at 0.1 µM ([7]; dose 100 nM): 113%
activity at 0.5 µM ([7]; dose 500 nM): 105%
activity at 2.5 µM ([7]; dose 2500 nM): 99.8%
viability at 0.0002 µM ([8]; dose 0.2 nM): 90.8%
viability at 0.001 µM ([8]; dose 1 nM): 99.8%
viability at 0.005 µM ([8]; dose 5 nM): 108%
viability at 0.025 µM ([8]; dose 25 nM): 116%
viability at 0.1 µM ([8]; dose 100 nM): 93.1%
viability at 0.5 µM ([8]; dose 500 nM): 91.7%
viability at 2.5 µM ([8]; dose 2500 nM): 104%
